According to PubChem BioAssay AID248 (DTP/NCI, 2004):
Inconclusive results and toxic doses are left out. Rule as the data show it: active = T/C of 150% or more; inactive = T/C below 125%.

Tested on: L1210 leukemia ip in BDF1 mice, survival T/C
Experiment: NCI In Vivo Anticancer Drug Screen. Data for tumor model L1210 Leukemia (intraperitoneal) in B6D2F1 (BDF1) mice
Details: endpoint: mean survival time, higher = longer survival
Procedure, shortened: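 Tumor was transplanted into mice, which were then dosed with test compound or vehicle alone. Survival was recorded for each group, and the treated figure was expressed relative to the control figure.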

[1] = dose: 100.0 mg/kg/injection, schedule: Q01DX001 (ip), vehicle: Klucel (hydroxypropylcellulose) (HPC)
[2] = dose: 200.0 mg/kg/injection, schedule: Q01DX001 (ip), vehicle: Klucel (hydroxypropylcellulose) (HPC)
[3] = dose: 400.0 mg/kg/injection, schedule: Q01DX001 (ip), vehicle: Klucel (hydroxypropylcellulose) (HPC)
[4] = dose: 50.0 mg/kg/injection, schedule: Q01DX001 (ip), vehicle: carboxymethylcellulose (CMC)
[5] = dose: 100.0 mg/kg/injection, schedule: Q01DX001 (ip), vehicle: carboxymethylcellulose (CMC)
[6] = dose: 200.0 mg/kg/injection, schedule: Q01DX001 (ip), vehicle: carboxymethylcellulose (CMC)
[7] = dose: 400.0 mg/kg/injection, schedule: Q01DX001 (ip), vehicle: carboxymethylcellulose (CMC)
[8] = dose: 100.0 mg/kg/injection, schedule: Q01DX001 (ip), vehicle: saline
[9] = dose: 200.0 mg/kg/injection, schedule: Q01DX001 (ip), vehicle: saline
[10] = dose: 400.0 mg/kg/injection, schedule: Q01DX001 (ip), vehicle: saline

Measured: T/C

C/C=C/c1cc(C)cc(C)c1OC(C)CC (stereo not drawn)
inactive: dose: 100.0 mg/kg/injection, schedule: Q04DX002 (ip), vehicle: saline with Tween-80 104 % of control | dose: 200.0 mg/kg/injection, schedule: Q04DX002 (ip), vehicle: saline with Tween-80 93 % of control

CCOc1ccc(C(c2ccc(OCC)cc2)C(Cl)(Cl)Cl)cc1
inactive: [1] 106 % of control | [2] 100 % of control | [3] 100 % of control

COc1cccc(C(=O)NC[n+]2ccccc2)c1
inactive: dose: 25.0 mg/kg/injection, schedule: Q01DX009 (ip), vehicle: saline 92 % of control | dose: 25.0 mg/kg/injection, schedule: Q04DX003 (ip), vehicle: saline 96 % of control | dose: 50.0 mg/kg/injection, schedule: Q01DX009 (ip), vehicle: saline 87 % of control | dose: 50.0 mg/kg/injection, schedule: Q04DX003 (ip), vehicle: saline 86 % of control | dose: 100.0 mg/kg/injection, schedule: Q04DX003 (ip), vehicle: saline 100 % of control

C/C=C/Sc1ccccc1C(=O)O
inactive: [4] 104 % of control | [5] 100 % of control | [6] 104 % of control

CCOC(=O)c1c(OC)cc2n(c1=O)Cc1cc3ccccc3nc1-2
inactive: dose: 150.0 mg/kg/injection, schedule: Q01DX009 (ip), vehicle: saline with Tween-80 86 % of control | dose: 225.0 mg/kg/injection, schedule: Q01DX009 (ip), vehicle: saline with Tween-80 89 % of control | dose: 335.0 mg/kg/injection, schedule: Q01DX009 (ip), vehicle: saline with Tween-80 89 % of control

CCOC(=O)C1CC2(c3ccccc3)C(=O)C1(c1ccccc1)C(c1ccccc1)=C2c1ccccc1 (stereo not drawn)
inactive: [4] 100 % of control | [5] 94 % of control | [6] 100 % of control | [7] 97 % of control

CN1CN(c2ccccc2)C2(CCN(Cc3nc4ccc(Cl)cc4[nH]3)CC2)C1=O
inactive: [1] 101 % of control | [2] 93 % of control | [3] 91 % of control

CC(C)CCCC(C)C1CCC2C3CC(=O)NC4CC(Br)CCC4(C)C3CCC12C (stereo not drawn)
inactive: dose: 100.0 mg/kg/injection, schedule: Q04DX003 (ip), vehicle: acetone 93 % of control | dose: 200.0 mg/kg/injection, schedule: Q04DX003 (ip), vehicle: acetone 102 % of control | dose: 400.0 mg/kg/injection, schedule: Q04DX003 (ip), vehicle: acetone 98 % of control

CC(=O)OC1CCC2(C)C(=CC=C3C2CCC2(C)C3CC(OC(C)=O)C2C(C)C2CCC(C)CN2C(C)=O)C1 (stereo not drawn)
inactive: dose: 50.0 mg/kg/injection, schedule: Q01DX009 (ip), vehicle: saline with Tween-80 91 % of control | dose: 100.0 mg/kg/injection, schedule: Q01DX009 (ip), vehicle: saline with Tween-80 91 % of control

OC1(CCCc2ccccc2)CCNCC1
inactive: dose: 75.0 mg/kg/injection, schedule: Q01DX001 (ip), vehicle: saline 104 % of control | dose: 150.0 mg/kg/injection, schedule: Q01DX001 (ip), vehicle: saline 110 % of control

CN(C)c1ccc(/C=N\NC(=O)c2ccco2)cc1
inactive: dose: 200.0 mg/kg/injection, schedule: Q01DX001 (ip), vehicle: other 93 % of control | dose: 400.0 mg/kg/injection, schedule: Q01DX001 (ip), vehicle: other 90 % of control

Cc1c(C)c(Br)c(C)c(-c2c(C)c(C)c(C)c(Br)c2C)c1C
inactive: dose: 50.0 mg/kg/injection, schedule: Q01DX009 (ip), vehicle: Klucel (hydroxypropylcellulose) (HPC) 99 % of control | dose: 100.0 mg/kg/injection, schedule: Q01DX009 (ip), vehicle: Klucel (hydroxypropylcellulose) (HPC) 97 % of control | dose: 200.0 mg/kg/injection, schedule: Q01DX009 (ip), vehicle: Klucel (hydroxypropylcellulose) (HPC) 94 % of control | dose: 400.0 mg/kg/injection, schedule: Q01DX009 (ip), vehicle: Klucel (hydroxypropylcellulose) (HPC) 90 % of control

O=C(CC(c1ccccc1)C(C(CC(=O)c1ccccc1)c1ccccc1)[N+](=O)[O-])c1ccccc1 (stereo not drawn)
inactive: [5] 92 % of control | dose: 100.0 mg/kg/injection, schedule: Q04DX003 (ip), vehicle: Klucel (hydroxypropylcellulose) (HPC) 87 % of control | [6] 95 % of control | dose: 200.0 mg/kg/injection, schedule: Q04DX003 (ip), vehicle: Klucel (hydroxypropylcellulose) (HPC) 89 % of control | [7] 92 % of control | dose: 400.0 mg/kg/injection, schedule: Q04DX003 (ip), vehicle: Klucel (hydroxypropylcellulose) (HPC) 86 % of control

CC(C)C(C(=O)O)N(C)C(=O)c1cnc2ccccc2n1 (stereo not drawn)
inactive: [8] 105 % of control | [9] 109 % of control | [10] 103 % of control

CC1C(C)(C)C12C=CC=C2 (stereo not drawn)
inactive: [8] 102 % of control | [9] 96 % of control | [10] 96 % of control
